PMC8038090, “Xanthine Oxidase Inhibitors from Filipendula ulmaria (L.) Maxim. and Their Efficient Detections by HPTLC and HPLC Analyses” (Molecules, 2021)
Values after ≈ are worked out from the molar mass of the structure shown. “Also recorded” adds a separate entry of the source. Read-outs that look alike come from different tables or passages of the source.

Legend:
[1] = system: xanthine oxidase (XO); test: HPTLC xanthine oxidase bioautography (NBT/formazan); type: biochemical; conditions: for XO inhibitory activity on HPTLC bioautography plate (spot intensity): white/yellow spots on purple background, 1 mg/mL, 20 µL applied
Description: As the spectrophotometer analysis monitors the production of uric acid from xanthine, the HPTLC method measures the production of the superoxide radical anion formed during the regeneration of an enzyme. In contact with superoxide radical anion, the Nitro Blue Tetrazolium (NBT) is transformed in formazan (purple), inducing a change in the color of the reaction mixture. The inhibitors will appear as white/yellow spots under a purple background.
The samples were prepared by dissolving 1 mg of each fraction in 1 mL of methanol, and 20 µL was applied on 8 mm bands, 8 mm from the lower edge of the plate. The mobile phase was a mixture of ethyl acetate, dichloromethane, formic acid, acetic acid, and water (100:25:10:10:11). […] After development, plates were dried under a stream of cool air for 10 min.
The XO inhibition assay was conducted using the method developed by Ramallo [32], with slight modifications. After migration, the plates were dipped into a solution of PBS 120 mM containing xanthine oxidase (0.1 U/mL), EDTA (1 mM), and NBT (1 mM) in a sterilizer, at 37 °C in the dark for 30 min. The plates were then dipped into a solution of PBS 120 mM containing xanthine (1.5 mM) in a sterilizer, at 37 °C for 30 min in the dark.

[2] = system: xanthine oxidase (XO); test: Measurement of XO interaction by HPLC (crude extract incubated with and without enzyme); type: binding; conditions: crude extract 1 mg/mL, XO 0.1 U/mL, 1 h; for Interaction with XO (HPLC subtraction, negative peaks): HPLC-UV 254 nm; for XO binding (%): estimated from difference of peak area with and without XO
Description: The identification of bioactive compounds which form in a complex mixture by rapid screening, without the requirement of purification, is a challenging approach. […] Based on the method described by Wang, we incubated the enzyme with the crude extract and carried out HPLC analyses on the filtrate after centrifugation.
The measurement of XO interaction was conducted according to Zhang’s procedure, with some modifications. The assay mixture contained 10 mL of crude extract at 1 mg/mL in water, and 200 µL of xanthine oxidase (final concentration of 0.1 U/mL), or 200 µL of water. Prior to the HPLC analysis, the solution was mixed for one hour at room temperature in the dark. After one hour, the mixture was centrifuged at 4500× g […] and supernatant was filtered through a 0.45 µm PTFE filter. […] Potential inhibitors were identified after subtraction of the chromatogram obtained from the assay with and without XO (negative peaks).

[3] = Stability in solution for the XO assay; type: physicochemical
[4] = biological target: xanthine oxidase (XO); set-up: method as in doi:10.5539/jfr.v1n3p257, doi:10.1016/j.bjp.2015.08.013; conditions: described to possess no inhibitory activity; read-out: IC50, XO inhibition (described); cited from earlier work
[5] = biological target: xanthine oxidase (XO) (Bos taurus, UniProt P80457); test: Xanthine oxidase inhibitory activity by UV spectroscopy (uric acid formation at 293 nm); type: biochemical
Chain of xanthine oxidase (XO) (Bos taurus, UniProt P80457) (P80457 2-1332 limits assumed): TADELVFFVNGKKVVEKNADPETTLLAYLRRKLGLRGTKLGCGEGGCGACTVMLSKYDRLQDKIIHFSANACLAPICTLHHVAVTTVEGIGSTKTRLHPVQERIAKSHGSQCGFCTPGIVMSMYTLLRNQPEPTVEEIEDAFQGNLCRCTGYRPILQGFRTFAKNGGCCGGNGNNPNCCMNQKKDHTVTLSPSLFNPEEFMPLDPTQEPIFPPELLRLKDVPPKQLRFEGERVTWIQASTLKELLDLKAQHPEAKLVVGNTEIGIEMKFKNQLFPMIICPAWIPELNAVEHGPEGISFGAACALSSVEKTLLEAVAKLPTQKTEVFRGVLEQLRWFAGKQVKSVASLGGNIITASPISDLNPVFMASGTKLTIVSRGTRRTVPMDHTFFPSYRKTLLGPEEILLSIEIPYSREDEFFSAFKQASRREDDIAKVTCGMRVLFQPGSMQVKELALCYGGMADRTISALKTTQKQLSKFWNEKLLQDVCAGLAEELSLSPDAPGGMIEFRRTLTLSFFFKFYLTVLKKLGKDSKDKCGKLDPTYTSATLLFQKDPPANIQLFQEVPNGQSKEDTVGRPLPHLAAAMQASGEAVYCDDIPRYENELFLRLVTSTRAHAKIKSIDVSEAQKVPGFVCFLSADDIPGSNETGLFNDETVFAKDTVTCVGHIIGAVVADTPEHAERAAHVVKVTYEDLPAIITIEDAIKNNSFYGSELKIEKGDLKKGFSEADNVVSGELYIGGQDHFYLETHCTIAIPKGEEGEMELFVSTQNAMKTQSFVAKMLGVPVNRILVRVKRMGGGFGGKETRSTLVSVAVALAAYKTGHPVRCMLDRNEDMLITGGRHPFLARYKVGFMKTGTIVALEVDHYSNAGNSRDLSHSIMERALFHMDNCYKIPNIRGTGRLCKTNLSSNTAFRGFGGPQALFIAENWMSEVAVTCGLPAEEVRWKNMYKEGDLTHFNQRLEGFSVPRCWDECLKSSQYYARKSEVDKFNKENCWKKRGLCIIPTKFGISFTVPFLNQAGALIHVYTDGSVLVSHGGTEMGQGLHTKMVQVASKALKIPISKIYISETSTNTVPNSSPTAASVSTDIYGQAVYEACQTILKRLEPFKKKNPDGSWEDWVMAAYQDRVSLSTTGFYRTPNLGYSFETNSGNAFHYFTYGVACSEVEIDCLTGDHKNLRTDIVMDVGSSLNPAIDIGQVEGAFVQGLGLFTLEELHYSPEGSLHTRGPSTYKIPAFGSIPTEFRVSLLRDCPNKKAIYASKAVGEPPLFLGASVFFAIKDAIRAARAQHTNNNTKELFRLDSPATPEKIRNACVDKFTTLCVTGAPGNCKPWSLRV
Description: Inhibition of XO was conducted according to the procedure described by Sowndhararajan et al., with slight modifications. […] Prior to the addition of XO solution in the mixture, all the components were incubated at 25 °C in the dark for 5 min. […] The enzymatic activity assay without extract was defined as maximum relative activity, and the percentage of inhibition was calculated according to the method of Yan et al. IC50 values were determined using linear regression and are expressed in µg/mL of plant extract ± standard deviation. All measurements were performed in triplicate (n = 3).

[6] = Solubility for the XO assay; type: physicochemical; conditions: in water or DMSO
[7] = UV spectroscopy, xanthine 56 µM, XO 0.01 U/mL, 25 °C, n = 3, read-out: IC50 (µg/mL), XO inhibition (converted)
[8] = UV spectroscopy, xanthine 56 µM, XO 0.01 U/mL, 25 °C, n = 3, read-out: IC50 (µM), XO inhibition

Structure (SMILES)	XO inhibitory activity on HPTLC bioautography plate (spot intensity) [1]	Interaction with XO (HPLC subtraction, negative peaks) [2]	XO binding (%) [2]	IC50 [5, 7]	IC50 [5, 8]	also measured
O=C(OC1O[C@@H]2COC(=O)c3cc(O)c(O)c(O)c3-c3c(cc(O)c(O)c3O)C(=O)O[C@H]2[C@H](OC(=O)c2cc(O)c(O)c(O)c2)[C@H]1OC(=O)c1cc(O)c(O)c(O)c1)c1cc(O)c(O)c(O)c1 (stereo partly drawn) [Tellimagrandin II]	weak activity	strongest interaction	around 30%			Stability on the HPTLC plate [1]: decompose on the plate; Stability in solution [3]: decomposed in the solution
O=C(O)c1cc(O)c(O)c(O)c1 [Gallic acid]				> 1760 µM		IC50 [4]: > 100 µM; IC50 [5]: > 50 µM
O=c1c(O)c(-c2ccc(O[C@@H]3O[C@H](CO)[C@@H](O)[C@H](O)[C@H]3O)c(O)c2)oc2cc(O)cc(O)c12 [Spiraeoside]	quite strong inhibitors; also recorded: strong interactions	significant interactions	around 30%	0.668 µM	0.66 ± 0.02 µM	XO inhibitory activity relative to allopurinol ([5]; activity higher than allopurinol): around 25 times
O=c1c(O)c(-c2ccc(O)cc2)oc2cc(O)cc(O)c12 [Kaempferol]	quite strong inhibitors; also recorded: strong interactions	seem to interact				
O=C(O)c1ccccc1O [Salicylic acid]				> 2170 µM	> 50 µM	IC50 [4]: > 100 µM
O=c1c(O)c(-c2ccc(O[C@@H]3O[C@H](CO)[C@@H](O)[C@H](O)[C@H]3O)cc2)oc2cc(O)cc(O)c12 [Kaempferol-4′-O-glucoside]		significant interactions				
O=c1oc2c(O)c(O)cc3c(=O)oc4c(O)c(O)cc1c4c23 [Ellagic acid]	weak activity					Stability on the HPTLC plate [1]: decompose on the plate; Solubility [6]: not soluble
O=c1c(O[C@@H]2O[C@H](CO)[C@@H](O)[C@H](O)[C@H]2O)c(-c2ccc(O)c(O)c2)oc2cc(O)cc(O)c12 [Isoquercitrin]	weak interactions	did not seem to interact		> 215 µM	> 50 µM	
O=C(O[C@@H]1O[C@@H]2COC(=O)c3cc(Oc4c(C(=O)O[C@@H]5O[C@@H]6COC(=O)c7cc(O)c(O)c(O)c7-c7c(cc(O)c(O)c7O)C(=O)O[C@H]6[C@H](OC(=O)c6cc(O)c(O)c(O)c6)[C@H]5OC(=O)c5cc(O)c(O)c(O)c5)cc(O)c(O)c4O)c(O)c(O)c3-c3c(cc(O)c(O)c3O)C(=O)O[C@H]2[C@H](OC(=O)c2cc(O)c(O)c(O)c2)[C@H]1OC(=O)c1cc(O)c(O)c(O)c1)c1cc(O)c(O)c(O)c1 [Rugosin D]	strong interactions	strongest interaction	around 60%		35.7 ± 2.1 µM	IC50 (µg/mL), XO inhibition ([5]; UV spectroscopy, xanthine 56 µM, XO 0.01 U/mL, 25 °C, n = 3): 67.0 ± 1.1 µg/mL (≈ 35.7 µM)
O=c1c(O)c(-c2ccc(O)c(O)c2)oc2cc(O)cc(O)c12 [Quercetin]	quite strong inhibitors; also recorded: strong interactions	seem to interact	~50%			
O=c1c(O[C@@H]2O[C@H](CO)[C@H](O)[C@H](O)[C@H]2O)c(-c2ccc(O)c(O)c2)oc2cc(O)cc(O)c12 [Hyperoside]	weak interactions	did not seem to interact		> 215 µM	> 50 µM	
